Results published in patent US4879385A, “Substituted hydroxyalkyl-azoles and their use as antimycotics” (Bayer Aktiengesellschaft, priority 1982, dated 1989).

Assays:
[1] = tested on: fungi (antimycotic); conditions: prior art DE-OS 2,623,129 and DE-OS 2,851,086; cited from earlier work
[2] = tested on: Candida; assay: Antimycotic in vivo activity (oral) in candidosis of mice; conditions: mice SPF-CF, i.v. Candida; oral 25-100 mg/kg 1 h before and 7 h after infection
Experimental: Mice of the SPF-CF type were infected intravenously with 1-2×10^6logarithmically growing Candida cells, which were suspended in physiological sodium chloride solution. The animals were treated orally one hour before and seven hours after the infection, with, in each case, 25-100 mg/kg of body weight of the formulations.
Untreated animals died 3 to 6 days after infection. The survival rate on the 6th day after infection was about 5% in the case of untreated control animals.

[3] = tested on: dermatophytes, moulds and yeasts; assay: Antimycotic in vitro activity, series dilution test (overall comparison); assay type: cell-based; conditions: 20° C., 24 to 96 hours
Experimental: The in vitro tests were carried out in series dilution test with germ inocula of an average of 5×10^4 germs/ml of substrate. The nutrient medium was (a) for dermatophytes and moulds: Sabourand's milieu d'epreuve and (b) for yeasts: meat extract/glucose broth. The incubation temperature was 20° C. and the duration of incubation was 24 to 96 hours in the case of yeasts, and 96 hours in the case of dermatophytes and moulds.

Row | SMILES | antimycotic properties [1] | action in vivo compared with compounds (A), (B) and (C) [2] | antimycotic action in vitro compared with compounds (A), (B) and (C) [3]
1 | OC(Cc1ccc(Cl)cc1)(Cn1ccnc1)c1ccc(Cl)cc1 (stereo not drawn) [(A), 1,2-bis(4-chlorophenyl)-2-hydroxy-3-(imidazol-1-yl)-propane] | good antimycotic properties |  | 
2 | OC(Cn1ccnc1)(c1cccc(Cl)c1)c1cccc(Cl)c1 [(B), 1,1-bis(3-chlorophenyl)-1-hydroxy-2-(imidazol-1-yl)-ethane] | good antimycotic properties |  | 
3 | OC(Cc1ccccc1)(Cn1cncn1)c1ccc(-c2ccccc2)cc1 (stereo not drawn) [(C), 2-(4-biphenyl)-2 hydroxy-1-phenyl-3-(1,2,4-triazol-1-yl)-propane] | good antimycotic properties |  | 
4 | CC(C)(Cc1ccc(Cl)cc1)C(O)(Cn1ccnc1)c1ccc(Cl)cc1 (stereo not drawn) [Example 1, 2,4-bis(4-chlorophenyl)-3,3-dimethyl-1-(imidazol-1-yl)-butan-2-ol] |  | better action than the compounds (A), (B) and (C) | better antimycotic action than the compounds (A), (B) and (C)
5 | CC(C)(Oc1ccc(Cl)cc1)C(O)(Cn1cncn1)c1ccc(Cl)cc1.Cl (stereo not drawn) [Example 2, 3-(4-chlorophenoxy)-2-(4-chlorophenyl)-3-methyl-1-(1,2,4-triazol-1-yl)-butan-2-ol hydrochloride] |  |  | better antimycotic action than the compounds (A), (B) and (C)
6 | CC(C)(c1ccc(Cl)cc1)C(O)(Cn1ccnc1)c1ccc(Cl)cc1 (stereo not drawn) [Example 3] |  |  | better antimycotic action than the compounds (A), (B) and (C)
7 | CC(C)(Cc1ccc(Cl)cc1)C(O)(Cn1cncn1)c1ccc(Cl)cc1 (stereo not drawn) [Example 4] |  | better action than the compounds (A), (B) and (C) | better antimycotic action than the compounds (A), (B) and (C)
8 | CC(C)(c1ccc(Cl)cc1)C(O)(Cn1cncn1)c1ccc(Cl)cc1 (stereo not drawn) [Example 5] |  |  | better antimycotic action than the compounds (A), (B) and (C)
9 | CC(C)(Cc1ccccc1)C(O)(Cn1cncn1)c1ccc(F)cc1 (stereo not drawn) [Example 6] |  |  | better antimycotic action than the compounds (A), (B) and (C)
10 | CC(C)(Cc1ccc(Cl)cc1)C(O)(Cn1ccnc1)c1ccc(F)cc1 (stereo not drawn) [Example 8] |  | better action than the compounds (A), (B) and (C) | better antimycotic action than the compounds (A), (B) and (C)
11 | CC(C)(Cc1ccc(Cl)cc1)C(O)(Cn1cncn1)c1ccc(F)cc1 (stereo not drawn) [Example 9] |  | better action than the compounds (A), (B) and (C) | better antimycotic action than the compounds (A), (B) and (C)
12 | CC(C)(Cc1ccc(F)cc1)C(O)(Cn1ccnc1)c1ccc(Cl)cc1 (stereo not drawn) [Example 10] |  |  | better antimycotic action than the compounds (A), (B) and (C)
13 | CC(C)(Cc1ccc(F)cc1)C(O)(Cn1cncn1)c1ccc(Cl)cc1 (stereo not drawn) [Example 11] |  | better action than the compounds (A), (B) and (C) | better antimycotic action than the compounds (A), (B) and (C)
14 | CC(C)(Cc1ccc(Cl)cc1Cl)C(O)(Cn1ccnc1)c1ccc(F)cc1 (stereo not drawn) [Example 12] |  |  | better antimycotic action than the compounds (A), (B) and (C)
15 | CC(C)(Sc1ccc(Cl)cc1)C(O)(Cn1cncn1)c1ccc(Cl)cc1 (stereo not drawn) [Example 14] |  |  | better antimycotic action than the compounds (A), (B) and (C)
16 | CC(C)(Cc1ccc(F)cc1)C(O)(Cn1cncn1)c1ccccc1 (stereo not drawn) [Example 15] |  |  | better antimycotic action than the compounds (A), (B) and (C)
17 | CC(C)(Sc1ccc(Cl)cc1)C(O)(Cn1ccnc1)c1ccc(Cl)cc1 (stereo not drawn) [Example 16] |  |  | better antimycotic action than the compounds (A), (B) and (C)
18 | CC(C)(Oc1ccc(Cl)cc1Cl)C(O)(Cn1ccnc1)c1ccc(Cl)cc1 (stereo not drawn) [Example 17] |  | better action than the compounds (A), (B) and (C) | 

Row | SMILES | antimycotic properties [1] | action in vivo compared with compounds (A), (B) and (C) [2] | antimycotic action in vitro compared with compounds (A), (B) and (C) [3]
19 | CC(C)(Oc1ccc(Cl)cc1Cl)C(O)(Cn1cncn1)c1ccc(Cl)cc1 (stereo not drawn) [Example 18] |  | better action than the compounds (A), (B) and (C) | better antimycotic action than the compounds (A), (B) and (C)
20 | CC(C)(Oc1ccccc1Cl)C(O)(Cn1cncn1)c1ccc(Cl)cc1 (stereo not drawn) [Example 19] |  |  | better antimycotic action than the compounds (A), (B) and (C)
21 | CC(C)(Oc1ccccc1Cl)C(O)(Cn1ccnc1)c1ccc(Cl)cc1 (stereo not drawn) [Example 20] |  |  | better antimycotic action than the compounds (A), (B) and (C)
22 | Cc1cc(Cl)ccc1OC(C)(C)C(O)(Cn1cncn1)c1ccc(Cl)cc1 (stereo not drawn) [Example 21] |  |  | better antimycotic action than the compounds (A), (B) and (C)
23 | CC(C)(Oc1ccccc1)C(O)(Cn1cncn1)c1ccc(Cl)cc1 (stereo not drawn) [Example 22] |  |  | better antimycotic action than the compounds (A), (B) and (C)
24 | CC(C)(Oc1ccccc1)C(O)(Cn1ccnc1)c1ccc(Cl)cc1 (stereo not drawn) [Example 23] |  |  | better antimycotic action than the compounds (A), (B) and (C)
25 | Cc1ccc(C(C)(C)C(O)(Cn2ccnc2)c2ccc(Cl)cc2)cc1 (stereo not drawn) [Example 25] |  |  | better antimycotic action than the compounds (A), (B) and (C)
26 | CCC(C)(COc1ccc(Cl)cc1)C(O)(Cn1cncn1)c1ccc(Cl)cc1 (stereo not drawn) [Example 26] |  | better action than the compounds (A), (B) and (C) | better antimycotic action than the compounds (A), (B) and (C)
27 | CCC(C)(Oc1ccc(Cl)cc1)C(O)(Cn1cncn1)c1ccc(Cl)cc1 (stereo not drawn) [Example 27] |  | better action than the compounds (A), (B) and (C) | 
28 | CC(C)(Cc1ccc(F)cc1)C(O)(Cn1cncn1)c1ccc(F)cc1 (stereo not drawn) [Example 28] |  | better action than the compounds (A), (B) and (C) | better antimycotic action than the compounds (A), (B) and (C)
29 | CC(C)(Oc1ccc(Cl)cc1)C(O)(Cn1cncn1)c1ccc(F)cc1 (stereo not drawn) [Example 29] |  | better action than the compounds (A), (B) and (C) | better antimycotic action than the compounds (A), (B) and (C)
30 | CC(C)(Oc1ccc(F)cc1)C(O)(Cn1cncn1)c1ccc(F)cc1 (stereo not drawn) [Example 30] |  | better action than the compounds (A), (B) and (C) | 
31 | CC(C)(Oc1ccc(Cl)cc1)C(O)(Cn1ccnc1)c1ccc(F)cc1 (stereo not drawn) [Example 31] |  | better action than the compounds (A), (B) and (C) | 
32 | CC(C)(Oc1ccc(F)cc1)C(O)(Cn1ccnc1)c1ccc(F)cc1 (stereo not drawn) [Example 32] |  | better action than the compounds (A), (B) and (C) | 
33 | CC(C)(Cc1ccc(F)cc1)C(O)(Cn1ccnc1)c1ccc(F)cc1 (stereo not drawn) [Example 33] |  | better action than the compounds (A), (B) and (C) | 
34 | CCC(C)(Oc1ccc(F)cc1)C(O)(Cn1cncn1)c1ccc(F)cc1 (stereo not drawn) [Example 34] |  | better action than the compounds (A), (B) and (C) | 
35 | CCC(C)(Oc1ccc(Cl)cc1)C(O)(Cn1cncn1)c1ccc(F)cc1 (stereo not drawn) [Example 35] |  | better action than the compounds (A), (B) and (C) | better antimycotic action than the compounds (A), (B) and (C)
